ChEMBL document CHEMBL3612037, “Design and synthesis of some new pyrazolyl-pyrazolines as potential anti-inflammatory, analgesic and antibacterial agents” (Eur J Med Chem, 2015)
Converted amounts (≈) assume the structure as drawn. The source made the active and inactive calls. The calls are words filed in the database; no cut-off is given here.

Columns and labels:
[1] = test system: Staphylococcus aureus; experiment: Antimicrobial activity against Staphylococcus aureus at 20 uL of 1 mg/ml by disc diffusion assay; assay type: functional; details: for zone of inhibition at 1000 µg/mL: read-out: IZ
[2] = test system: Aeromonas hydrophila; experiment: Antimicrobial activity against Aeromonas hydrophila at 20 uL of 1 mg/ml by disc diffusion assay; assay type: functional; details: for zone of inhibition at 1000 µg/mL: read-out: IZ
[3] = test system: Mus musculus; experiment: Acute toxicity in Swiss mouse assessed as induction of depression incidence at 100 to 1000 mg/kg, po measured 48 hrs post dose; assay type: organism-based; details: in vivo
[4] = test system: Rattus norvegicus; experiment: Anti-inflammatory activity in Wistar rat assessed as inhibition of carrageenan-induced paw oedema at 50 mg/kg, po dosed 30 mins before carrageenan challenge and measured 30 mins post carrageenan challenge; assay type: functional
[5] = test system: Rattus norvegicus; experiment: Anti-inflammatory activity in Wistar rat assessed as inhibition of carrageenan-induced paw oedema at 50 mg/kg, po dosed 30 mins before carrageenan challenge and measured 60 mins post carrageenan challenge; assay type: functional
[6] = Acute toxicity in Swiss mouse at 100 to 1000 mg/kg, po measured 48 hrs post dose; assay type: organism-based; details: in vivo
[7] = test system: Rattus norvegicus; experiment: Analgesic activity in Wistar rat assessed as tail flick latency time at 50 mg/kg, po measured 60 mins post dose by tail flick method (reference value: 3.47 +/- 0.1 secs); assay type: functional
[8] = test system: Rattus norvegicus; experiment: Analgesic activity in Wistar rat assessed as tail flick latency time at 50 mg/kg, po measured 30 mins post dose by tail flick method (reference value: 3.46 +/- 0.1 secs); assay type: functional
[9] = test system: Mus musculus; experiment: Acute toxicity in Swiss mouse assessed as induction of diarrhoea incidence at 100 to 1000 mg/kg, po measured 48 hrs post dose; assay type: organism-based; details: in vivo
[10] = test system: Rattus norvegicus; experiment: Anti-inflammatory activity in Wistar rat assessed as inhibition of carrageenan-induced paw oedema at 50 mg/kg, po dosed 30 mins before carrageenan challenge and measured 120 mins post carrageenan challenge; assay type: functional
[11] = test system: Rattus norvegicus; experiment: Analgesic activity in Wistar rat assessed as tail flick latency time at 50 mg/kg, po measured 0 mins post dose by tail flick method (reference value: 3.5 +/- 0.8 secs); assay type: functional
[12] = test system: Escherichia coli; experiment: Antimicrobial activity against Escherichia coli at 20 uL of 1 mg/ml by disc diffusion assay; assay type: functional; details: for zone of inhibition at 1000 µg/mL: read-out: IZ
[13] = test system: Staphylococcus; experiment: Antimicrobial activity against Staphylococcus citreus at 20 uL of 1 mg/ml by disc diffusion assay; assay type: functional; details: for zone of inhibition at 1000 µg/mL: read-out: IZ
[14] = test system: Rattus norvegicus; experiment: Analgesic activity in Wistar rat assessed as tail flick latency time at 50 mg/kg, po measured 90 mins post dose by tail flick method (reference value: 3.7 +/- 0.1 secs); assay type: functional
[15] = test system: Staphylococcus aureus; experiment: Antimicrobial activity against Staphylococcus aureus by agar dilution method; assay type: functional
[16] = test system: Staphylococcus; experiment: Antimicrobial activity against Staphylococcus citreus by agar dilution method; assay type: functional

Row | Structure (SMILES) | inhibition zone (IZ) [1] | zone of inhibition at 1000 µg/mL [2] [mm] | Activity [3] | inhibition in vivo at 50 mg/kg [4] [%] | inhibition in vivo at 50 mg/kg [5] [%] | LD50 at 48 h [6] [mg/kg] | Time [7] [s] | Time [8] [s] | Activity [9] | inhibition in vivo at 50 mg/kg [10] [%] | Time [11] [s] | zone of inhibition at 1000 µg/mL [12] [mm] | inhibition zone (IZ) [13] | Time [14] [s] | inhibition zone (IZ) [2] | zone of inhibition at 1000 µg/mL [13] [mm] | zone of inhibition at 1000 µg/mL [1] [mm] | inhibition zone (IZ) [12] | MIC [15] [µg/mL] | MIC [16] [µg/mL]
1 | CC(=O)N1N=C(c2ccc(F)cc2)CC1c1cn(-c2ccccc2)nc1-c1ccc(Cl)c(Cl)c1 (centres undefined) | inactive | 19 | Non-toxic | 45.7 | 59.5 | 500 | 6.5 | 6.8 | Non-toxic | 72.7 | 3.5 | 12 | inactive | 6.6 | – | – | – | – | – | –
2 | Cc1ccc(C2=NN(C=O)C(c3cn(-c4ccccc4)nc3-c3ccc(Cl)c(Cl)c3)C2)cc1 (centres undefined) | inactive | – | Non-toxic | 35.1 | 53.4 | 500 | 4.6 | 4.7 | Non-toxic | 60.9 | 3.4 | 20 | – | 4.4 | inactive | 16 | – | – | – | –
3 | Cc1ccc(C2=NN(c3ccccc3)C(c3cn(-c4ccccc4)nc3-c3ccc(Cl)c(Cl)c3)C2)cc1 (centres undefined) | – | 18 | Non-toxic | 46.8 | 58.8 | 500 | 7.1 | 6.7 | Non-toxic | 62.5 | 3.3 | 20 | inactive | 6.6 | – | – | 15 | – | – | –
4 | CC(=O)N1N=C(c2ccc(Cl)cc2)CC1c1cn(-c2ccccc2)nc1-c1ccc(Cl)c(Cl)c1 (centres undefined) | – | 19 | Non-toxic | 45.7 | 57.2 | 500 | 5.9 | 5.5 | Non-toxic | 66.4 | 3.5 | – | – | 5.1 | – | 13 | 21 | inactive | – | –
5 | CCC(=O)N1N=C(c2ccc(C)cc2)CC1c1cn(-c2ccccc2)nc1-c1ccc(Cl)c(Cl)c1 (centres undefined) | – | – | Non-toxic | 29.8 | 61.1 | 500 | 6.4 | 5.3 | Non-toxic | 70.3 | 3.3 | 22 | inactive | 5.9 | inactive | – | 24 | – | – | –
6 | Cc1ccc(C2=NN(c3ccc([N+](=O)[O-])cc3)C(c3cn(-c4ccccc4)nc3-c3ccc(Cl)c(Cl)c3)C2)cc1 (centres undefined) | – | 19 | Non-toxic | 57.4 | 72.5 | 500 | 7.4 | 7 | Non-toxic | 71.9 | 3.4 | 16 | – | 6.6 | – | 16 | 21 | – | – | –
7 | CC(=O)N1N=C(c2ccc(C)cc2)CC1c1cn(-c2ccccc2)nc1-c1ccc(Cl)c(Cl)c1 (centres undefined) | – | – | Non-toxic | 27.6 | 59.5 | 500 | 5.5 | 5.3 | Non-toxic | 70.3 | 3.5 | 18 | inactive | 5.5 | inactive | – | 19 | – | – | –
8 | O=CN1N=C(c2ccc(Cl)cc2)CC1c1cn(-c2ccccc2)nc1-c1ccc(Cl)c(Cl)c1 (centres undefined) | – | – | Non-toxic | 35.1 | 51.1 | 500 | 4.7 | 4.5 | Non-toxic | 57.8 | 3 | – | – | 4.3 | inactive | 21 | 18 | inactive | – | –
9 | Cc1ccc(C2=NNC(c3cn(-c4ccccc4)nc3-c3ccc(Cl)c(Cl)c3)C2)cc1 (centres undefined) | – | 11 | Non-toxic | 38.3 | 56.5 | 500 | 6.3 | 5.9 | Non-toxic | 48.4 | 3.6 | 15 | inactive | 6.5 | – | – | 19 | – | – | –
10 | O=CN1N=C(c2ccc(F)cc2)CC1c1cn(-c2ccccc2)nc1-c1ccc(Cl)c(Cl)c1 (centres undefined) | – | 10 | Non-toxic | 37.2 | 56.5 | 500 | 6.4 | 6.3 | Non-toxic | 60.9 | 3.5 | 12 | – | 6.6 | – | 18 | 13 | – | – | –
11 | O=[N+]([O-])c1ccc(N2N=C(c3ccc(Cl)cc3)CC2c2cn(-c3ccccc3)nc2-c2ccc(Cl)c(Cl)c2)cc1 (centres undefined) | – | 21 | Non-toxic | 48.9 | 57.2 | 500 | 7 | 6.9 | Non-toxic | 69.5 | 3.4 | 31 | – | 6.6 | – | 18 | 22 | – | – | –
12 | CCC(=O)N1N=C(c2ccc(Cl)cc2)CC1c1cn(-c2ccccc2)nc1-c1ccc(Cl)c(Cl)c1 (centres undefined) | – | 23 | Non-toxic | 47.9 | 61.1 | 500 | 6.8 | 6.1 | Non-toxic | 68.8 | 3.3 | 19 | – | 5.4 | – | 18 | 30 | – | 300 (≈ 573 µM) | –
13 | Fc1ccc(C2=NNC(c3cn(-c4ccccc4)nc3-c3ccc(Cl)c(Cl)c3)C2)cc1 (centres undefined) | – | 16 | Non-toxic | 45.7 | 40.5 | 500 | 4.8 | 4.5 | Non-toxic | 46.1 | 3.1 | – | – | 4.2 | – | 23 | 14 | inactive | – | –
14 | CN[C@H](CC(C)C)C(=O)N[C@H]1C(=O)N[C@@H](CC(N)=O)C(=O)N[C@H]2C(=O)N[C@H]3C(=O)N[C@H](C(=O)N[C@H](C(=O)O)c4cc(O)cc(O)c4-c4cc3ccc4O)[C@H](O)c3ccc(c(Cl)c3)Oc3cc2cc(c3O[C@@H]2O[C@H](CO)[C@@H](O)[C@H](O)[C@H]2O[C@H]2C[C@](C)(N)[C@H](O)[C@H](C)O2)Oc2ccc(cc2Cl)[C@H]1O [VANCOMYCIN] | – | – | – | – | – | – | – | – | – | – | – | – | – | – | – | – | – | – | 500 (≈ 345 µM) | 500 (≈ 345 µM)
15 | O=[N+]([O-])c1ccc(N2N=C(c3ccc(F)cc3)CC2c2cn(-c3ccccc3)nc2-c2ccc(Cl)c(Cl)c2)cc1 (centres undefined) | – | – | Non-toxic | 45.7 | 60.3 | 500 | 5.7 | 5.1 | Non-toxic | 65.6 | 3.8 | – | – | 5.2 | inactive | 21 | 20 | inactive | – | –
